Values quoted from earlier work as cited in patent publication US8293779B2, “Mazindol combination in the treatment of attention deficit/hyperactivity” (Assistance Publique-Hopitaux de Paris, priority 2006, dated 2012).
Where two headings read alike, the source gives them in different places.

What was measured:
[1] = unlike amphetamine molecules
[2] = animal toxicology studies
[3] = after single or repeated oral administration

In the case of `OC1(c2ccc(Cl)cc2)c2ccccc2C2=NCCN21` (centres unmarked) [mazindol, 5-(4-chlorophenyl)-2,5-dihydro-3H-imadazo[2,1-a]isoindol-5-ol], the “part of the dose still plasmatically effective” value (24 hours after taking) is given as 75%, the plasmatic half-life time [3] is given as 33 to 55 h and the tmax [3] is given as 2 to 4 h. The pharmacokinetics dose dependence (doses of between 1 mg/day and 4 mg/day) was “linear (independent of the dose)”, the plasmatic half-life time (general statement) was “greater than one day” and the “excretion in faeces (fraction)” value (in vivo) was “¼”. The “delay of absorption by taking food concomitantly” value (oral, with food) was “approximately 1 hour”, the “effect of food on total quantity absorbed” value (oral, with food) was “does not modify the total quantity absorbed” and the “excretion in urine (fraction)” value (principal metabolism urinary) was “¾”. For the same compound, the “cardiovascular modifications or stereotypes” value [1] was “does not cause cardiovascular modifications or stereotypes”, the carcinogenic effect [2] was “no carcinogenic effect” and the mutagenic effect [2] was “no mutagenic effect”. The toxic potential [2] was “very low” and the “toxicology effect in reproduction” value [2] was “no toxicology effect in reproduction”.
